Columns and labels:
[1] = biological target: T1, AfNADase (Aspergillus fumigatus, UniProt Q4WL81); experiment: X-ray structure, crystals soaked with NAD+; type: binding; conditions: active site of molecule A, EGTA-treated protein, Ca2+ absent, formed from 10 mM NAD+ soak
T1 construct: gene nadA; N-glycosylated at N45, N95, N118; about 30 kDa; homodimer; thumb 20-117, TNT palm domain 117-234; mutants also in 293 cells (C-terminal His6)

[2] = biological target: T1, AfNADase; experiment: X-ray co-crystal structure; type: binding; conditions: non-hydrolysable substrate analogue, active site of molecule B; 5 mM BAD co-crystallized, 0.1 M sodium acetate pH 5, CaCl2
[3] = biological target: T2, NcNADase (Neurospora crassa, UniProt Q7S936); experiment: HPLC cleavage assay; type: biochemical; conditions: 200 µM substrate, 50 mM Tris-HCl pH 8.0, 0.5 mM CaCl2, 150 mM NaCl, 20 °C (conditions described for AfNADase)
T2 construct: gene NCU07948; secreted from transiently transfected 293 cells, codon-optimized, in pCMV-Flag5a (Flag tag), anti-FLAG purified, N-glycosylated
T2 sequence (Q7S936 20-243): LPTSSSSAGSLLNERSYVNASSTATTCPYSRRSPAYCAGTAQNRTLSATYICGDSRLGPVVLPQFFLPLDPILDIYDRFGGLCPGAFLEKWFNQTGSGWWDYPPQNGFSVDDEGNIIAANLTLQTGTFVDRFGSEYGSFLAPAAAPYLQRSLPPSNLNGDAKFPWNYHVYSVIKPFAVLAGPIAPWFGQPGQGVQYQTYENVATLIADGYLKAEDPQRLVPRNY

[4] = system: NC(=O)c1ccc[n+]([C@@H]2O[C@H](COP(=O)(O)OP(=O)(O)OC[C@H]3O[C@@H](n4cnc5c(N)ncnc54)[C@H](O)[C@@H]3O)[C@@H](O)[C@H]2O)c1; experiment: purified protein; conditions: 500 µM substrate, 0.2 nM enzyme, 25 mM sodium phosphate pH 5.8, 50 mM NaCl, 5 % D2O, 23 °C
[5] = system: NC(=O)c1ccc[n+]([C@@H]2O[C@H](COP(=O)(O)OP(=O)(O)OC[C@H]3O[C@@H](n4cnc5c(N)ncnc54)[C@H](OP(=O)(O)O)[C@@H]3O)[C@@H](O)[C@H]2O)c1; experiment: purified protein; conditions: 500 µM substrate, 0.2 nM enzyme, 25 mM sodium phosphate pH 5.8, 50 mM NaCl, 5 % D2O, 23 °C
[6] = biological target: the molecule itself; experiment: SEC; purified recombinant AfNADase; conditions of the analysis not told in the text (Supplementary Fig. 2C-F)

`Nc1ncnc2c1ncn2[C@@H]1O[C@H](COP(=O)(O)OP(=O)(O)OC[C@H]2OC(O)[C@H](O)[C@@H]2O)[C@@H](O)[C@H]1O` (some centres unmarked) [ADPR] was tested, and the “X-ray structure, crystals soaked with NAD+” value ([1]; bound together with nicotinamide) was “the reaction products, Nam and ADPR, were bound to a putative active site”.

With `NC(=O)c1cccc([C@@H]2O[C@H](COP(=O)(O)OP(=O)(O)OC[C@H]3O[C@@H](n4cnc5c(N)ncnc54)[C@H](O)[C@@H]3O)[C@@H](O)[C@H]2O)c1` [BAD] the X-ray co-crystal structure [2] was “We were able to co-crystallize AfNADase with BAD bound to the active site”.

`NC(=O)c1ccc[n+]([C@@H]2O[C@H](COP(=O)(O)OP(=O)(O)OC[C@H]3O[C@@H](n4cnc5c(N)ncnc54)[C@H](OP(=O)(O)O)[C@@H]3O)[C@@H](O)[C@H]2O)c1` [NADP^+] was tested, and the HPLC cleavage assay [3] was “Both AfNADase and NcNADase cleaved NAD^+ and NADP^+”.

For `NC(=O)c1ccc[n+]([C@@H]2O[C@H](COP(=O)(O)OP(=O)(O)OC[C@H]3O[C@@H](n4cnc5c(N)ncnc54)[C@H](O)[C@@H]3O)[C@@H](O)[C@H]2O)c1` [NAD^+], the HPLC cleavage assay [3] was “Both AfNADase and NcNADase cleaved NAD^+ and NADP^+”.

`NC(=O)c1cccnc1` [Nam] was tested, and the “X-ray structure, crystals soaked with NAD+” value ([1]; bound together with ADP-ribose) was “the reaction products, Nam and ADPR, were bound to a putative active site”.

With AfNADase (Aspergillus fumigatus Af293) the Km [4] was 119.7 ± 40.8 µM and the Km [5] was 106 ± 27.1 µM.

B1: Aspergillus fumigatus NADase (AfNADase), recombinant, from Sf9 insect cells (enzyme)
chain: LQHTEDSLFPARCWPDPCAGITFQNDTYVCGDPRLGPVVLPQKFPLNNELRTYARFGALCPAEFLDKWATDVAPNGTYIYPPANGFALDTEEQPILGNATLPVGMKLDRFGSEYGTFLAPLGAPYIERSLPPSNLNTFDGMYPYNYHVYQVTKEFVVGLGPIAPWFEQPGMGTQFVTYTNVLGLIDDGYLRRLDESEYDEKVEYSNPYTPGPNQ
modifications: N-linked glycosylation at N45, N95 and N118; disulfide bridges C33-80 and C38-50
notes: also called A. fumigatus NADase; gene product AFUA_6G14470
For B1, the “stoichiometry N” value [6] was 2.

From paper PMC7955114, “Discovery of fungal surface NADases predominantly present in pathogenic species” (Nature Communications, 2021)
